Experimental data reported in patent US4551453A, “2-(ω-Alkylaminoalkyl)- and 2-(ω-dialkylaminoalkyl-3-(4-X-benzylidene)-phthalimidines” (Laboratori Baldacci SpA, priority 1982, dated 1985).
pIC50: −log10 of the molar value. Structures can show the parent of a compound that is named as a salt. Values belong to the molecule of their own block, whether it stands above or below them.

Columns and labels:
rabbit cornea = test: Test of the rabbit cornea; type: in vivo
Source text: There were used amounts of AL 12 of 0.25-0.50-1.0% in comparison with amounts of 1% and 2% of xylocaine.

[1] = Lethality and toxicity for single dose (rat); details: in vivo, ip
Source text: Lethality and toxicity for single dose

mice = details: i.v. route
in vivo = details: mouse
vagal nerve of chicken = test: Test of inhibition of the action potential of the vagal nerve of chicken; details: for pIC50: parameter (b), stimulations higher than the maximum, read-out: ED 50, inhibition of the width of the action potential; for effects vs tetracaine: same molar concentrations as tetracaine
Source text: For these tests two investigation parameters were selected:
(a) increase of the stimulating threshold necessary to induce the appearance of the action potential;
(b) inhibition of the potential width as induced by the supra maximum stimulation. AL 12 and AL 12 B were compared with the tetracaine.

Salmonella Typhymurium = test: Ames test; type: cell-based; details: up to the concentration of 5 ml (so in the source)
Method: (§1) The compound AL 12 was subjected to the tests of genic mutation. All the tests used for such experiments were carried out and precisely:
(a) Ames test using as the substrate a protocariote organism as Salmonella Typhymurium;

[2] = test system: sciatic nerve of edible frog; test: Test on the sciatic nerve of frog (inhibition of action potential); details: for times more active than lidocaine: deduced from frog sciatic nerve comparison with procaine and literature lidocaine/procaine ratio; for times more powerful than procaine: sciatic nerve of frog, vs procaine
Method: There was assessed the concentration of the tested substances (AL 12, AL 12 B and AL 5) capable of inhibiting or reducing the action potential of the sciatic nerve of edible frog after removal of a lenght of perinerium.
The stimulating device was sending maximum pulses of 0.1 msec of duration.
The reductions of the action potential after application of the substances were indicated as percentages of the initial action potential.
The comparison substance was procaine at the following concentrations: 0.4-0.6 and 0.8M

[3] = test system: cellular line Hela of human fibroplasts; test: DNA recovery test (non programmed synthesis of recovery DNA); type: cell-based; details: up to the concentration of 5 ml (so in the source)
Method: as §1
(c) DNA recovery test, i.e. test of the non programmed synthesis of recovery DNA on the cellular line Hela of human fibroplasts.

[4] = test system: Schizosaccharomyces Pombe; test: Test of genic mutation (forwardly); type: cell-based; details: up to the concentration of 5 ml (so in the source)
Method: as §1
(b) Test of genic mutation (forwardly) of Schizosaccharomyces Pombe, permitting the evaluation of every mutagenic event capable of varying the functionality of every 5 genes involved in the synthesis of adenine;

[5] = Pharmacodynamic tests (overall local anesthetic activity comparison); details: AL 12 vs lidocaine, as it appears from the pharmacodynamic tests
Method: As regards the pharmacodynamic tests, they were carried out on the following compounds:
The local anesthetic power of these compounds was tested in comparison with procaine, xylocaine and tetracaine.

[6] = test system: sciatic nerve of edible frog; details: as unanimously stated in the literature; cited from earlier work
Wistar rats = test: Subacute toxicity, 15 days intramuscular; details: 10 mg/kg AL 12 or lidocaine at equivalent molecular dose
Method: It was tested in two stocks of Wistar rats, in three groups each comprising 20 animals, (10 male and 10 female).
The injections were carried out by intramuscolar route in a point of the thigh for 15 days.

[7] = 60 day intramuscular toxicological study; type: in vivo, rats; details: rat, in vivo, im; rats, i.m., 60 days; read-out: dosage of first toxic alterations relative to single dose useful in the human being
Method: (§2) In order to shown the potential toxicity of the compound AL 12 B a toxicological study was programmed which either for the duration of the administration period (60 days), and for the route of introduction in the organism (intramuscular) and for the variety of used dosages (5-10-20 mg/kg) was surely suitable to indicate the possible toxicity of the substance.
(§3) It is pointed out that the lowest dose used in the test is already about 5 to 10 times higher than the single therapeutical dose, possibly used by infiltration in the human being. Male and female rats, having respectively a body weight of about 90 and 65 g, were divided in groups of 6-9 animals of the same sex and stalled in 2 to 3 animals per cage with water and food ad libitum.
(§4) The environment conditions were maintained constant at 24° C., moisture at night-day cycle.
(§5) The drug in apirogenic sterile solution was daily injected by intramuscolar route. At the end of the treatment the animals were anesthetized for the blood removal for the hematochemical and hematological examinations. The animals were than sacrificed and the weight of the single fresh organs was carefuly recorded. The hematochemical parameters which were taken into consideration were the following: glycemia, uricemia, alkaline phosphatase (ALP) malate dehydrogenase (MDH), acetylcholinesterase (CHE), SGPT, SGOT, L-y-glutamyltransferase (Y.G.T.), ornitincarbonyltransferase (O.C.T.), triocylglycerolacylhydrolase (Lipase), isocitratedehydrogenase (ICDH), sorbitole dehydrogenase (SDH), hydroxybutyrate dehydrogenase (HCDH), lactic dehydrogenase (LDHP), […] arylamidase (LAP), sodiemia, potassiemia, chloridemia, magnesiemia, calcemia, total tryglicerides, albumins, globulins, A/G total proteins, total cholesterole, amylasemia, creatininemia. Some hematological parameters were furthermore measured: red corpuscles, platelets, white corpusles, leucocitary form, hemoglobine.
(§6) The urinary parameters taken into consideration were, besides the 24 hour volume, azotemia, creatininuria, amylasuria, uricuria, calciuria, chlorides, sodium and potassium.
(§7) For the statistical evaluations of the weight of the fresh organs the analysis of the covariations was effected in order to eliminate the possible influences of the body weight onto the organ weight.
(§8) The hematological and hematochemical parameters were statistically balanced by means of the variancy analysis by taking into consideration all the gropus and the Student "t" amongst the single treated groups and the control group.
(§9) The homogeneity of the leucocitary form was investigated by the .chi.^2 test.

Male and female rats = test: 60 day intramuscular toxicological study; type: in vivo; details: 60 days
Method: as §2, §3, §4, §5, §6, §7, §8, §9

SMILES: CCN(CC)CC(=O)Nc1c(C)cccc1C [xylocaine, reference compound]
duration of the complete anesthesy (rabbit cornea; 2% xylocaine): 60 min

SMILES: CCN(CC)CCN1C(=O)c2ccccc2C1=Cc1ccc(OC)cc1 [AL 12, 3-(4-methoxybenzylidene)-2-(β-diethylaminoetyl)phthalimidine hydrochloride]
LD50 [1]: 52.5 mg/kg
duration of complete anesthesy (rabbit cornea; 0.25% AL 12): 30 min
duration of complete anesthesy vs xylocaine at a 4 times higher concentration (rabbit cornea; 0.25% AL 12 vs 4 times higher xylocaine): slightly lower
duration of the complete anesthesy (rabbit cornea; 0.50% AL 12): more than 90 minutes
anesthetic power vs xylocaine at a 4 times higher dose (rabbit cornea; 0.50% AL 12 vs 2% xylocaine): higher
acute toxicity, times higher in comparison with lidocaine (mice): about 2.4 (2.37) times
LD50 (in vivo; im): 32.5 mg/kg
LD50 (in vivo; iv): 13.5 mg/kg
pIC50 (vagal nerve of chicken): 8.10
effects vs tetracaine (vagal nerve of chicken): almost perfectly superimposable to those of tetracaine
induction of mutations, Ames test (Salmonella Typhymurium): unable to induce mutations
times more active than lidocaine [2]: 5-6 times
times more powerful than procaine [2]: about 11.5 times
induction of mutations, DNA recovery test [3]: unable to induce mutations
induction of mutations, genic mutation (forwardly) [4]: unable to induce mutations
local anesthetic activity: lidocaine is about n times less active than AL 12 [5]: about 4 times

SMILES: CCN(CC)CC(=O)Nc1c(C)cccc1C [lidocaine]
local anesthetic activity, times higher than procaine [6]: about 2.2 times
food consumption and diuresis (Wistar rats; all along the treatment period): normal
all the other functions (Wistar rats; intramuscular, 15 days): remained unchanged
autoptic examination (Wistar rats; intramuscular, 15 days): Nothing out of the rule was observed
loss of functionality of the injected leg, duration (Wistar rats; intramuscular, 15 days): about one
weight of the organs vs control animals (Wistar rats; intramuscular, 15 days): did not differ from that of the control animals

SMILES: CN(C)CCCN1C(=O)c2ccccc2C1=Cc1ccccc1 [AL 5, 3-benzylidene-2-(γ-dimethylaminopropyl)-phthalimidine hydrochloride]
times more powerful than procaine [2]: about 5 times

pIC50 (vagal nerve of chicken): 8.10
SMILES: CCCCNc1ccc(C(=O)OCCN(C)C)cc1 [tetracaine, reference compound]

SMILES: CCN(CC)CCN1C(=O)c2ccccc2C1=Cc1ccc(OC(C)=O)cc1 [AL 12B, 3-(4-acetoxybenzylidne)-2-(β diethylaminoethyl)-phthalimidine hydrochloride]
effects vs tetracaine (vagal nerve of chicken): almost perfectly superimposable to those of tetracaine
selectivity ratio at 1440 h [7]: 10
all the investigated parameters (Male and female rats; 5 mg/kg i.m.): none appeared to be modified
HBDG (Male and female rats; female, 10 mg/kg i.m.): increase
LDH-P (Male and female rats; female, 10 mg/kg i.m.): increase
globulins (Male and female rats; female, 10 mg/kg i.m.): increase
urinary parameters, females (Male and female rats; female, 10 mg/kg i.m.): no alteration might be appreciated
alterations in female animals (Male and female rats; female, 20 mg/kg i.m.): no alteriation might be appreciated
body weight growth vs control (Male and female rats; male and female rats, 5-10-20 mg/kg i.m.): comparable with that of the control animals
hematological parameters (Male and female rats; male and female, 10 mg/kg i.m.): None of the hematological parameters was modified
body weight growth, males at higher dosages (not statistically significant) (Male and female rats; male rats, 10-20 mg/kg i.m.): tendentially reduced
albumins (Male and female rats; male, 10 mg/kg i.m.): reduction
amylasuria (Male and female rats; male, 10 mg/kg i.m.): reduced
glycemia (Male and female rats; male, 10 mg/kg i.m.): reduction
spleen weight, males (Male and female rats; male, 10 mg/kg i.m.): slight increase
urinary chloride (Male and female rats; male, 10 mg/kg i.m.): reduced
weight of the spleen (Male and female rats; male, 20 mg/kg i.m.): increased
weight of the suprarenal glands (Male and female rats; male, 20 mg/kg i.m.): increased
ALP (alkaline phosphatase) (Male and female rats; male, found also in female, 10 mg/kg i.m.): slight increase
dose-dependence of the observed modifications (Male and female rats; rats, 5-10-20 mg/kg i.m.): none of the observed modifications, was shown to be dose-dependent
overall toxicity (Male and female rats; rats, 5-10-20 mg/kg i.m.): not particularly toxic
times more active than lidocaine [2]: about 4 times
pIC50 ([2]; sciatic nerve of edible frog, read-out: ED50 (reduction of action potential)): 1.10
times more powerful than procaine [2]: at least 8.5 times
